# Data taken from patent publication US7196083B2, “Heteropolycyclic inhibitors of protein kinases” (priority 2000, dated 2007).
# Like-named read-outs stand apart in the source and are kept apart here.
# How the values were obtained:
# [1] = tested on: M3 murine melanoma cells; test: [3H] thymidine uptake cell proliferation assay, M3; type: cell-based; conditions: Mus musculus, read-out: Cell Proliferation Effects (IC50 (nM))
# [2] = tested on: B16-F1 (murine melanoma); test: [3H] thymidine uptake cell proliferation assay, B16F1; type: cell-based; conditions: Mus musculus, read-out: Cell Proliferation Effects (IC50 (nM))
# [3] = tested on: DU-145 (human carcinoma); test: [3H] thymidine uptake cell proliferation assay, DU145; type: cell-based; conditions: read-out: Cell Proliferation Effects (IC50 (nM))
# [4] = tested on: LL2 Lewis Lung human lung carcinoma; test: [3H] thymidine uptake cell proliferation assay, LL2; type: cell-based; conditions: LL/2, read-out: Cell Proliferation Effects (IC50 (nM))
# [5] = tested on: HT-29 human colon carcinoma; test: [3H] thymidine uptake cell proliferation assay, HT29; type: cell-based; conditions: read-out: Cell Proliferation Effects (IC50 (nM))
# [6] = tested on: PKB; test: Time course kinase assay in U87 cells, immunoprecipitated with PKB/PH specific antibody; type: cell-based, human; conditions: for PKB activity, % of control: 5 uM, background about 15% of control
# Protocol: The compound was added to culture at mid-logarithmic growth which were harvested at specific time intervals. In preparation for this assay, each cell line was seeded at a density of 3 times 1,000,000 cells per plate onto 150 mm culture dishes and allowed to establish o/n at 37 deg C. A confluency of 50–60% was obtained to ensure maximal drug penetration into each cell. Once the cells were adherent to the culture plates, there were treated with PKB inhibitor KP-23172 for a final conc. of 5 uM. Each culture plate was lysed on ice at specific time intervals using 1% NP-40 lysis buffer containing various protease inhibitors; 10 ug/uL aprotinin, 10 ug/ul leupeptin, 1 ug/ul pepstatin, 1 M beta-glycerophosphate and 100 mM PMSF. The resulting lysates were centrifuged at 15K×g at 4 deg C. for 5 min and then assayed for its protein conc. using Bradford's Reagent and absorbance measurements at 595 nm. […] Each sample was then centrifuged at 14K×g for 2 min at 4 deg C. and the s/n aspirated off. Beads were thoroughly washed twice with lysis buffer, then with Assay Dilution Buffer. When any unbound proteins have been completely washed away from the beads, 30 uL of ADB was added along with 10 uL of PDB substrate. Tubes were immediately incubated in 30 deg. C. water baths after the kinase reaction was allowed to commence with the addition of 10 uL assay (gamma32P)ATP. […] All vials were counted for one minute in the scintillation counter. To determine the potency of KP-23172, U87 cells were plated onto 150 mm petri plates and treated with 5 uM KP-23172. After incubation at 37 deg C. under 5% CO2 for the specified time, cells were lysed and the supernatant extracted for kinase analysis. All samples were immunoprecipitated with PKB/PH specific antibody and kinase activity. measured using a short amino acid peptide as the substrate. […] Background was about 15% of control.
# [7] = tested on: LS-180 (human colon carcinoma); test: [3H] thymidine uptake cell proliferation assay, LS180; type: cell-based; conditions: read-out: Cell Proliferation Effects (IC50 (nM))
# [8] = tested on: human breast carcinoma MDA-MB-435 cell line; test: [3H] thymidine uptake cell proliferation assay, MDA435; type: cell-based; conditions: read-out: Cell Proliferation Effects (IC50 (nM))
# Protocol: The human breast carcinoma MDA-MB-435 cell line was obtained from MD Anderson Cancer Center, and cultured in alpha-MEM media supplemented with 10% Fetal Bovine Serum. Cells were maintained in T150 tissue culture flasks, and grown at 37° C. in a humidified 5% CO2 incubator. All cells were passaged regularly using 0.25% Trypsin-EDTA in order to maintain cells at exponential growth for various experiments. LS 180 cells were passaged without trypsin and were physically scraped off the culture flasks. In vitro [^3H] thymidine uptake assay. Proliferation can be measured by quantifying the amount of [^3H] thymidine uptake into cells using a β-counter, and therefore is a well-established diagnostic tool to measure DNA synthesis within the cells. […] The cells were allowed to adhere to the plates via incubation at 37° C. in 5% CO2 for 12–14 hours. […] Then, 10 μL of the compound was added to the pre-existing 90 μL per well, and incubated further at 37° C. in 5% CO2 for 20 hours. To measure thymidine incorporation, cells were fixed onto the culture wells by slowly adding ¼^th volume of cold 50% TCA into each well (25 μL to each well) and incubated for 1–2 hours at 4° C. […] Then, 100 μL of scintillation fluid was added to each well and the activity counted using a Wallac Microbeta Counter.
# [9] = tested on: A-549 (human lung carcinoma); test: [3H] thymidine uptake cell proliferation assay, A549; type: cell-based
# [10] = in vivo; conditions: mouse, ip, 2 mg/kg
# Protocol: A pharmacokinetics (PK) study was performed on KP-23172 formulated in 20% propylene glycol and 20% hydroxypropyl-B-cyclodextrin, administered intraperitoneally (i.p.) at 2 mg/kg. Plasma samples obtained at various time points were sent to BRI Biopharmaceutical Research Inc., Burnaby, BC, Canada for analysis by Liquid Chromatography/Mass Spectroscopy (LC/MS). Electrospray LC/MS/MS data was acquired in the multiple-reaction-monitoring mode (MRM) in which m/z 225.00>114.20 was monitored for KP-23172 as its [M+H]^+ transition to an ion fragment of m/z 114.2. A mass ion transition of m/z 300.00>165.10 was being monitored for codeine as an internal standard. MRM chromatograms of mouse plasma standard curve samples spiked with 1 and 5000 ng/ml were performed as controls. Plasma calibration standard curves were established based on 1/y linear regression of plasma concentrations of KP-23172 against peak area ratio to the internal standard. The calculated KP-23172 plasma concentrations were based on the assay of 0.05 ml of plasma volume used in the assay and reported as ng/ml concentration. A summary of the KP-23172 plasma concentrations observed in 20 samples from 4 mice is presented in FIG. 2 as a semi-logarithmic plot of the plasma concentrations against blood collection times.
# [11] = target: PKB, full-length recombinant bovine protein, alpha form (Bos taurus, UniProt Q01314); test: PKB inhibition in vitro enzyme assay (radioactive phosphate incorporation, scintillation counting); type: biochemical; conditions: PKB in vitro enzyme assay, 15 min at room temperature
# Chain of PKB, full-length recombinant bovine protein, alpha form (Q01314 whole entry): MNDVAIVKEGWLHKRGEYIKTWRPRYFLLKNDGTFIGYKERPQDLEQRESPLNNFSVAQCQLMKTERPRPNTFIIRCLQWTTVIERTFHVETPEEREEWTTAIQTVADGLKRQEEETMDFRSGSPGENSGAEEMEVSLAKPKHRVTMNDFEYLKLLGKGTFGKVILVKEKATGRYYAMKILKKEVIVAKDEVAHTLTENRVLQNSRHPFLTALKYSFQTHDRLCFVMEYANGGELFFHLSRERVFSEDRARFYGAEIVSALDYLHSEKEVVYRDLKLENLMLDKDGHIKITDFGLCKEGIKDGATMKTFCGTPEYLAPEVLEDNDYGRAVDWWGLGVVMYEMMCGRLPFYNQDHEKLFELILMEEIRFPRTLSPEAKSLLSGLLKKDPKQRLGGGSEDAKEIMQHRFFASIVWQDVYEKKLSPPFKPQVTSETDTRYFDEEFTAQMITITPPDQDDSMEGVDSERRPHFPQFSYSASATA
structure (smiles),measurement,setting,value
O=C1c2ccccc2-c2nc3nnnn3nc21 [KP-23172],IC50,[1],25 nM
same,IC50,[2],60 nM
same,IC50,[3],50 nM
same,IC50,[4],400 nM
same,IC50,[5],200 nM
same,"PKB activity, % of control",[6]; after 15 min,80.4%
same,"PKB activity, % of control",[6]; after 30 min,23.8%
same,"PKB activity, % of control",[6]; after 60 min,38.5%
same,levels of the kinase in time course kinase assay,"[6]; 5 iM, after 60 minutes",significantly decreased levels of the kinase
same,IC50,[7],80 nM
same,IC50,[8],60 nM
same,IC50,"[9]; A459 cells, read-out: Cell Proliferation in A459 IC50 in nm",80 nM
same,IC50,"[9]; A549, read-out: Cell Proliferation Effects (IC50 (nM))",80 nM
same,concentration at 15 min,[10],~500 ng/mL
same,concentration at 60 min,[10],~100 ng/mL
same,half-life,[10],about ½
same,IC50,[11],15000 nM
